In patent publication US20060127381A1, “Live bacterial preparation of bacillus coagulans for the treatment of ulcerative colitis, method for producing the same and use thereof” (priority 2004, published 2006):
Marks after values point to notes of the source that are not given here.

Test system: experimental ulcerative colitis
Assay: DSS modeling and treatment of experimental ulcerative colitis in rat
Type: in vivo, SD rat
Settings: SASP 0.02 g/ml i.g., twice a day for 21 days
Method: The producing method of live bacteria preparation of Bacillus coagulans for the treatment of ulcerative colitis comprises following steps: incubating Bacillus coagulans by fermentation; drying bacteria slurry after centrifugation to obtain live bacteria powder, which is then prepared as suitable dosage forms. Ulcerative colitis is characterized in that pathological change mostly occurs at rectum and sigmoid flexure, or throughout the whole colon. A microscopic examination of colon can show mucosal blooding, edema, erosion or superficial ulcertion on affected intestine with mucus and inflammatory exudate covered thereon. Bleeding, inflammatory cell infiltration, epithelial cell decreasing, crypt collapsing and distorting, abscess formation are also often found in microscopic examination. Chronic ulcer may heal to form scar or pseudopolyp. Experimental study is to administrate dextran sodium sulfate (DSS) to SD rat by i.g. and rectal injection to induce experimental ulcerative colitis model, and then subject the modeled rat to experimental treatment with a live bacterial tablet of Bacillus coagulans, whereby the treatment effect of tablet is evaluated. The use is to apply the live bacterial tablet of Bacillus coagulans to clinically treat patients suffering from ulcerative colitis, whereby the efficacy and safety of the live bacterial preparation for UC patients is evaluated.
60 rats were kept under a sterile environment before test. Normal intestinal flora was taken from stools in the rats' anuses and incubated. 10 rats were taken as normal control and other 50 rats as experimental group. According a modified UC rat modeling method (Xiaoping Wu etc., Chinese Journal of Digestion, Vol. 23(5):305, 2003), 3% dextran sodium sulfate (DSS) solution was i.g. administrated to rats with empty stomachs (1 ml/100 g), once a day for 7 days. At the last time, 1 ml/rat of DSS was additionally injected into recta through anuses. After 7 days, stools were taken for flora analysis. 10 rats were then sacrificed and colons were removed by laparocolectomy. The wet weights of colons were measured (g/100 g body weight). The colons was fixed with formaldehyde and stained with alcian blue solution (Sino-American Biotec). The point counts of ulcer and erosion parts were observed by naked eye. Areas (cm^2) of the largest stained blue points were measured with calipers. After the confirmation of UC formation, rats were divided into 4 groups, 10 rats per group. The rats were administrated i.g. with live bacteria tablet of Bacillus coagulans(BC) (10^7 cfU/ml, 10^6 cfU/ml), 0.02 g/ml salicylazosulfapyridine (SASP) and normal saline solution (NS), respectively, twice a day for 21 days, afterwhich the stools were taken for flora analysis. Thereafter, all of the rats were sacrificed. Colon specimens were treated according to above method and corresponding indicators were determined. In addition, intestinal tissue masses were sampled to prepare 5% homogenates, which were determined for their activities of myeloperoxidase (MPO) (U/g·wet slice) with myeloperoxidase test kit (Nanjing JianCheng Bioengineering Institute) by ultraviolet spectrometry (Beijing Technical Application Institute).
The intestinal flora was incubated and analyzed as follows. Fresh stools were extruded out from rats' anuses under sterile condition before or after modeling and after treatment, respectively. […]

In the case of `O=C(O)c1cc(/N=N/c2ccc(S(=O)(=O)Nc3ccccn3)cc2)ccc1O` [SASP, salicylazosulfapyridine], the “Intestinal wet weight (g/100 g body weight)” value is reported as 0.54 ± 0.05**^Δ g/100 g body weight, the “Ulcer or erosion points, Count of Points” value is reported as 2.20 ± 0.79**^ΔΔ and the “Ulcer or erosion points, area (cm^2)” value is reported as 0.22 ± 0.18**^Δ cm^2. The “Body weight (g) After treatment” value (DSS-modeled rats) was 264.00 ± 13.50 g and the “MPO activity (U/g wet weight)” value (intestinal tissue homogenate) was 0.20 ± 0.10**^ΔΔ U/g wet weight.
